Laboratory results: the supplement of paper PMC10307832

Assays:
Test in all cases: relative viability (nuclei count vs DMSO), 5 days (fraction); higher = more cells survive
ABC-1 = tested on: ABC-1
Procedure, shortened: (§1)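 Lung cancer cell lines in 1536-well plates were dosed by pin tool the day after seeding, either with one drug alone or with a fixed anchor-drug dose plus five library-drug doses (not always all listed) in √10 steps. After 5 days, cells were fixed and their nuclei stained in one step (final 0.05% Triton X-100, 1% formaldehyde, 1 ug/ml Hoechst), then counted on 4× images. Relative viability is the nuclei count in treated wells divided by that in vehicle wells. Values are medians of duplicate plates.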

EMC-BAC-2 = tested on: EMC-BAC-2
Procedure, shortened: as §1

LCLC-97TM1 = tested on: LCLC-97TM1
Procedure, shortened: as §1

NCI-H1355 = tested on: NCI-H1355
Procedure, shortened: as §1

NCI-H1666 = tested on: NCI-H1666
Procedure, shortened: as §1

NCI-H1755 = tested on: NCI-H1755
Procedure, shortened: as §1

NCI-H1793 = tested on: NCI-H1793
Procedure, shortened: as §1

NCI-H1944 = tested on: NCI-H1944
Procedure, shortened: as §1

NCI-H1975 = tested on: NCI-H1975
Procedure, shortened: as §1

NCI-H1993 = tested on: NCI-H1993
Procedure, shortened: as §1

NCI-H2009 = tested on: NCI-H2009
Procedure, shortened: as §1

NCI-H2126 = tested on: NCI-H2126
Procedure, shortened: as §1

NCI-H2170 = tested on: NCI-H2170
Procedure, shortened: as §1

NCI-H2347 = tested on: NCI-H2347
Procedure, shortened: as §1

NCI-H441 = tested on: NCI-H441
Procedure, shortened: as §1

NCI-H460 = tested on: NCI-H460
Procedure, shortened: as §1

NCI-H520 = tested on: NCI-H520
Procedure, shortened: as §1

NCI-H647 = tested on: NCI-H647
Procedure, shortened: as §1

NCI-H727 = tested on: NCI-H727
Procedure, shortened: as §1

PC-14 = tested on: PC-14
Procedure, shortened: as §1

PC-3 [JPC-3] = tested on: PC-3 [JPC-3]
Procedure, shortened: as §1

SK-LU-1 = tested on: SK-LU-1
Procedure, shortened: as §1

SW 1573 = tested on: SW 1573
Procedure, shortened: as §1

Cc1cnc(-c2cnc(NCCNc3ccc(C#N)cn3)nc2-c2ccc(Cl)cc2Cl)[nH]1 + Cc1nc(NC(=O)N2CCC[C@H]2C(N)=O)sc1-c1ccnc(C(C)(C)C(F)(F)F)c1 [Alpelisib] (partner 2 µM)
relative viability (ABC-1; first compound 0.08 µM): 0.961 | relative viability (ABC-1; first compound 0.253 µM): 0.867 | relative viability (ABC-1; first compound 0.8 µM): 1.02 | relative viability (ABC-1; first compound 2.53 µM): 0.814 | relative viability (EMC-BAC-2; first compound 0.08 µM): 0.8 | relative viability (EMC-BAC-2; first compound 0.253 µM): 0.72 | relative viability (EMC-BAC-2; first compound 0.8 µM): 0.743 | relative viability (EMC-BAC-2; first compound 2.53 µM): 0.749 | relative viability (LCLC-97TM1; first compound 0.08 µM): 0.28 | relative viability (LCLC-97TM1; first compound 0.253 µM): 0.176 | relative viability (LCLC-97TM1; first compound 0.8 µM): 0.251 | relative viability (LCLC-97TM1; first compound 2.53 µM): 0.323 | relative viability (NCI-H1355; first compound 0.08 µM): 0.801 | relative viability (NCI-H1355; first compound 0.253 µM): 0.752 | relative viability (NCI-H1355; first compound 0.8 µM): 0.786 | relative viability (NCI-H1355; first compound 2.53 µM): 0.783 | relative viability (NCI-H1666; first compound 0.08 µM): 1 | relative viability (NCI-H1666; first compound 0.253 µM): 0.919 | relative viability (NCI-H1666; first compound 0.8 µM): 0.831 | relative viability (NCI-H1666; first compound 2.53 µM): 1.07 | relative viability (NCI-H1755; first compound 0.08 µM): 0.998 | relative viability (NCI-H1755; first compound 0.253 µM): 0.851 | relative viability (NCI-H1755; first compound 0.8 µM): 0.901 | relative viability (NCI-H1755; first compound 2.53 µM): 0.896 | relative viability (NCI-H1793; first compound 0.08 µM): 0.838 | relative viability (NCI-H1793; first compound 0.253 µM): 0.618 | relative viability (NCI-H1793; first compound 0.8 µM): 0.973 | relative viability (NCI-H1793; first compound 2.53 µM): 1.08 | relative viability (NCI-H1944; first compound 0.08 µM): 0.827 | relative viability (NCI-H1944; first compound 0.8 µM): 0.84 | relative viability (NCI-H1944; first compound 2.53 µM): 0.824 | relative viability (NCI-H1975; first compound 0.08 µM): 0.667 | relative viability (NCI-H1975; first compound 0.253 µM): 0.571 | relative viability (NCI-H1975; first compound 0.8 µM): 0.561 | relative viability (NCI-H1975; first compound 2.53 µM): 0.52 | relative viability (NCI-H1993; first compound 0.08 µM): 0.715 | relative viability (NCI-H1993; first compound 0.253 µM): 0.72 | relative viability (NCI-H1993; first compound 0.8 µM): 0.683 | relative viability (NCI-H1993; first compound 2.53 µM): 0.694 | relative viability (NCI-H2009; first compound 0.08 µM): 1.13 | relative viability (NCI-H2009; first compound 0.253 µM): 1.14 | relative viability (NCI-H2009; first compound 0.8 µM): 1.26 | relative viability (NCI-H2009; first compound 2.53 µM): 1.05 | relative viability (NCI-H2126; first compound 0.08 µM): 0.725 | relative viability (NCI-H2126; first compound 0.253 µM): 0.756 | relative viability (NCI-H2126; first compound 0.8 µM): 0.669 | relative viability (NCI-H2126; first compound 2.53 µM): 0.766 | relative viability (NCI-H2170; first compound 0.08 µM): 0.825 | relative viability (NCI-H2170; first compound 0.253 µM): 0.702 | relative viability (NCI-H2170; first compound 0.8 µM): 0.757 | relative viability (NCI-H2170; first compound 2.53 µM): 0.778 | relative viability (NCI-H2347; first compound 0.08 µM): 1.08 | relative viability (NCI-H2347; first compound 0.253 µM): 0.812 | relative viability (NCI-H2347; first compound 0.8 µM): 1.15 | relative viability (NCI-H2347; first compound 2.53 µM): 1.01 | relative viability (NCI-H441; first compound 0.08 µM): 0.759 | relative viability (NCI-H441; first compound 0.253 µM): 0.668 | relative viability (NCI-H441; first compound 0.8 µM): 0.858 | relative viability (NCI-H441; first compound 2.53 µM): 0.7 | relative viability (NCI-H460; first compound 0.08 µM): 0.552 | relative viability (NCI-H460; first compound 0.253 µM): 0.475 | relative viability (NCI-H460; first compound 0.8 µM): 0.61 | relative viability (NCI-H460; first compound 2.53 µM): 0.68 | relative viability (NCI-H520; first compound 0.08 µM): 0.926 | relative viability (NCI-H520; first compound 0.253 µM): 0.791 | relative viability (NCI-H520; first compound 0.8 µM): 1.11 | relative viability (NCI-H520; first compound 2.53 µM): 1.04 | relative viability (NCI-H647; first compound 0.08 µM): 1.19 | relative viability (NCI-H647; first compound 0.253 µM): 1.08 | relative viability (NCI-H647; first compound 0.8 µM): 1.05 | relative viability (NCI-H647; first compound 2.53 µM): 1.22 | relative viability (NCI-H727; first compound 0.08 µM): 0.505 | relative viability (NCI-H727; first compound 0.253 µM): 0.593 | relative viability (NCI-H727; first compound 0.8 µM): 0.566 | relative viability (NCI-H727; first compound 2.53 µM): 0.482 | relative viability (PC-14; first compound 0.08 µM): 0.927 | relative viability (PC-14; first compound 0.253 µM): 0.834 | relative viability (PC-14; first compound 0.8 µM): 0.924 | relative viability (PC-14; first compound 2.53 µM): 0.802 | relative viability (PC-3 [JPC-3]; first compound 0.08 µM): 1 | relative viability (PC-3 [JPC-3]; first compound 0.253 µM): 0.934 | relative viability (PC-3 [JPC-3]; first compound 0.8 µM): 1.02 | relative viability (PC-3 [JPC-3]; first compound 2.53 µM): 1.01 | relative viability (SK-LU-1; first compound 0.08 µM): 1.09 | relative viability (SK-LU-1; first compound 0.253 µM): 0.931 | relative viability (SK-LU-1; first compound 0.8 µM): 1.28 | relative viability (SK-LU-1; first compound 2.53 µM): 1.18 | relative viability (SW 1573; first compound 0.08 µM): 0.822 | relative viability (SW 1573; first compound 0.253 µM): 0.765 | relative viability (SW 1573; first compound 0.8 µM): 0.748 | relative viability (SW 1573; first compound 2.53 µM): 0.515
